Measured values reported in paper PMC8687465 (bioRxiv, 2023).

Test system: FLUV (A/WSN/33)
Type: cell-based, influenza A/WSN/33

In the case of `CCOC(=O)C1=C[C@@H](OC(CC)CC)[C@H](NC(C)=O)[C@@H](N)C1` [Oseltamivir], the “activity against FLUV after 7 passages with compound (resistance development)” value is reported as “lost activity by passage 7”.
